Measurements: US9233971B2, “Lipomacrocycles and uses thereof” (priority 2010, dated 2016)

Columns and labels:
APOB mRNA in liver = experiment: In vivo gene knockdown, lipid particle siRNA formulation (Example 4), APOB siRNA; set-up: species or system CD1 mice; conditions: for Targeted mRNA remain in liver: lipid particles, APOB siRNA, CD1 mice, liver harvested three days later, real-time RT-PCR, GAPDH reference
Protocol: (§1) Lipid Particle formulations were made by first mixed siRNA in an aqueous solution with DOTMA in organic solvent to produce a water-insoluble precipitate. After isolating and drying the precipitate, the precipitate was dissolved in chloroform and further mixed with other lipids as following: Each lipid particle formulation was consisting of 1 part DOTMA+siRNA complex/5 parts any lipomacrocycle compound (Table 1)/1.5 parts N 6-tetrakis (3-aminopropyl)-1,3-propanediamine cholesteryl carbamate/2.2 parts 1,2-dilinoleoyl-sn-glycero-3-phosphoethanolamine/10.08 parts cholesterol PEG-660/4.32 parts cholesterol PEG-660/0.6 parts cholesterol (weight/weight). All the components were dissolved in chloroform and mixed together. Then, the mixtures were dried overnight in Speedvac. The dried formulations were hydrated by adding in certain amount of 5% dextrose water before dosing to animals intravenously.
(§2) All procedures used in animal studies conducted were approved by the Institutional Animal Care and Use Committee (IACUC) and were consistent with local, state and federal regulations as applicable. Mice, rats, and rabbits received siRNA formulations intravenously at dose volume of 0.2 ml, 1 ml, or 10 ml, respectively. Animals were sacrificed 2 to 7 days later. Tissues were harvested and mRNA was isolated with Turbocapture kit (Qiagen) for analyzing change of gene expression with real-time RT-PCR method (SensiMix SYBR One-Step Kit, Bioline). Serum was harvested for analyzing blood chemistry.
(§3) CD1 mice were dosed with lipid particle (Table 1) or liposome (Table 2) siRNA formulation intravenousely and the different tissues were harvested three days later. The gene expression was analyzed with real-time RT-PCR method (for liver, GAPDH as reference gene; for lung and bone marrow, GAPDG and β-actin as reference genes).

SSB mRNA in liver [1] = experiment: In vivo gene knockdown, liposomal siRNA formulation (Example 3), SSB siRNA; set-up: species or system CD1 mice; conditions: for Targeted mRNA remain in liver: liposomal formulation, SSB siRNA, dose 3.2 mg/kg intravenously, CD1 mice, liver harvested three days later, real-time RT-PCR, GAPDH reference
Protocol: Each liposome formulation was made by mixing lipids of each lipomacrocycle compound (Table 1) combined with DSPC, DMG-PEG 2K, and cholesterol at the weight ratio of 3.85:0.42:0.21:0.79 in ethanol and siRNA in water. Then 5% dextrose water was added in each formulation before dosing to mice.
as §2, §3

SSB mRNA in liver [2] = experiment: In vivo gene knockdown, lipid particle siRNA formulation (Example 4), SSB siRNA; conditions: lipid particles, CD1 mice, liver harvested three days later, real-time RT-PCR, GAPDH reference
Protocol: as §1, §2, §3

SMILES | Targeted mRNA remain in liver (SSB mRNA in liver [1]) | further results
CCCCCCCCCCCCCCOCC(O)CN(CCCN(C)CCCN(CC(O)COCCCCCCCCCCCCCC)CC(O)COCCCCCCCCCCCCCC)CC(O)COCCCCCCCCCCCCCC (centres unmarked) [Compound B1C1] | 0.13 | Targeted mRNA remain in liver (APOB mRNA in liver; dose 0.8 mg/kg intravenously): 0.82
CCCCCCCCCCOCC(O)CN(CCCN(C)CCCN(CC(O)COCCCCCCCCCC)CC(O)COCCCCCCCCCC)CC(O)COCCCCCCCCCC (centres unmarked) [Compound B1C2] | 0.68 | 
CCCCCCCCCCOCC(O)CN(CCCN1CCN(CCCN(CC(O)COCCCCCCCCCC)CC(O)COCCCCCCCCCC)CC1)CC(O)COCCCCCCCCCC (centres unmarked) [Compound B2C2] | 0.36 | 
CCCCCCCCCCCCC(O)CN(CCCN1CCN(CCCN(CC(O)CCCCCCCCCCCC)CC(O)CCCCCCCCCCCC)CC1)CC(O)CCCCCCCCCCCC (centres unmarked) [Compound B2C6] | 0.08 | performance of the lipid molecules, best performing compounds (SSB mRNA in liver [1]; ranking based on the results of Table 2 (liposomal formulation, SSB and APOB siRNA)): best performing
CCCCC(CC)COCC(O)CN(CCCN(CC(O)COCC(CC)CCCC)CC(O)COCC(CC)CCCC)CCCN(CC(O)COCC(CC)CCCC)CC(O)COCC(CC)CCCC (centres unmarked) [Compound D1C3] | 0.18 | 
CCCCCCCCCCCCCCC(O)CN(CCCN(CC(O)CCCCCCCCCCCCCC)CC(O)CCCCCCCCCCCCCC)CCCN(CC(O)CCCCCCCCCCCCCC)CC(O)CCCCCCCCCCCCCC (centres unmarked) [Compound D1C7] | 0.52 | 
CCCCC(CC)COCC(O)CN1CCN(Cc2ccccc2)CCN(CC(O)COCC(CC)CCCC)CCN(CC(O)COCC(CC)CCCC)CC1 (centres unmarked) [Compound M1C3] | 0.64 | 
CCCCCCCCCCCCCCCCC(O)CN1CCN(Cc2ccccc2)CCN(CC(O)CCCCCCCCCCCCCCCC)CCN(CC(O)CCCCCCCCCCCCCCCC)CC1 (centres unmarked) [Compound M1C5] | 0.6 | 
CCCCCCCCCCCCCCC(O)CN1CCN(Cc2ccccc2)CCN(CC(O)CCCCCCCCCCCCCC)CCN(CC(O)CCCCCCCCCCCCCC)CC1 (centres unmarked) [Compound M1C7] | 0.47 | Targeted mRNA remain in liver (SSB mRNA in liver [2]; dose 3.2 mg/kg intravenously): 0.35
CCCCCCCCCCCCCCOCC(O)CN1CCN(Cc2ccccc2)CCN(CC(O)COCCCCCCCCCCCCCC)CCN(Cc2ccccc2)CC1 (centres unmarked) [Compound M6C1] | 0.98 | Targeted mRNA remain in liver (SSB mRNA in liver [2]; dose 3.2 mg/kg intravenously): 0.64
CCCCCCCCCCCCC(O)CN1CCN(Cc2ccccc2)CCN(CC(O)CCCCCCCCCCCC)CCN(Cc2ccccc2)CC1 (centres unmarked) [Compound M6C6] | 0.8 | 
CC(C)CCC[C@@H](C)[C@H]1CC[C@H]2[C@@H]3CC=C4C[C@@H](OC(=O)N5CCN(Cc6ccccc6)CCNCCN(Cc6ccccc6)CC5)CC[C@]4(C)[C@H]3CC[C@]12C [Compound M6ch1] |  | Targeted mRNA remain in liver (APOB mRNA in liver; dose 3 mg/kg intravenously): 0.86
CCCCCCCCCCCCCCOCC(O)CN1CCCN(CC(O)COCCCCCCCCCCCCCC)CCCN(CC(O)COCCCCCCCCCCCCCC)CCC1 (centres unmarked) [Compound M9C1] | 0.3 | Targeted mRNA remain in liver (SSB mRNA in liver [2]; dose 3.2 mg/kg intravenously): 0.2
CCCCC(CC)COCC(O)CN1CCN(CC(O)COCC(CC)CCCC)CCN(CC(O)COCC(CC)CCCC)CCN(CC(O)COCC(CC)CCCC)CCN(CC(O)COCC(CC)CCCC)CCN(CC(O)COCC(CC)CCCC)CC1 (centres unmarked) [Compound M10C3] |  | Targeted mRNA remain in liver (SSB mRNA in liver [2]; dose 3 mg/kg intravenously): 0.43
CCCCCCCCCCC(O)CN1CCN(CC(O)CCCCCCCCCC)CCN(CC(O)CCCCCCCCCC)CCN(CC(O)CCCCCCCCCC)CCN(CC(O)CCCCCCCCCC)CCN(CC(O)CCCCCCCCCC)CC1 (centres unmarked) [Compound M10C4] |  | Targeted mRNA remain in liver (SSB mRNA in liver [2]; dose 3 mg/kg intravenously): 0.63
CCCCCCCCCCCCOCC(O)CN1CCN(CC(O)COCCCCCCCCCCCC)CCN(CC(O)COCCCCCCCCCCCC)CCN(CC(O)COCCCCCCCCCCCC)CCN(CC(O)COCCCCCCCCCCCC)CCN(CC(O)COCCCCCCCCCCCC)CC1 (centres unmarked) [Compound M10C8] |  | Targeted mRNA remain in liver (APOB mRNA in liver; dose 1 mg/kg intravenously): 0.06; performance of the lipid molecules, best compounds (APOB mRNA in liver; ranking based on the results of Table 1 (lipid particles, APOB and SSB siRNA)): best
CC(C)CCC[C@@H](C)[C@H]1CC[C@H]2[C@@H]3CC=C4C[C@@H](OC(=O)N5CCNCCNCCNCCNCCNCC5)CC[C@]4(C)[C@H]3CC[C@]12C [Compound M10ch1] |  | Targeted mRNA remain in liver (APOB mRNA in liver; dose 3 mg/kg intravenously): 0.39
